Experiment [1] concerns injured cartilage explants, GAG release. The experiment in a line: drop tower design model: GAG release. The class given is cell-based, bovine. Conditions: injured cartilage explants, inflammatory conditions. From the text: The device comprises a vertical rail that guides a sliding weight from 0.1 kg to 3 kg directly onto a force transducer which is situated at the bottom of the device. A sphere-shaped 2 mm indenter resting on a specimen is located at the bottom of the vertical rail. The indenter is held by a stop screw. The specimen is rigidly attached to a tissue holder underneath the indenter, to avoid side movements, the specimen is rigidly attached to the tissue holder. In this manner, the force transducer transduces a force indirectly onto the specimen. Adjusting the weight of a mass and height from which the mass drops varies the magnitude of the intended impact. For example, a weight mass (e.g., […]) held by a weight holder can be released from a height of e.g., 36 cm and dropped onto the force transducer.
Samples for compound evaluation were tested using either of two different methods to induce inflammatory conditions. One method utilized media conditioned from peripheral blood mononuclear cells (PBMCs) stimulated with LPS (“+LPS”) or non-inflammatory media without LPS (“−LPS”). Another method utilized the absence or presence of a cocktail of cytokines.
In the first method, bovine or human PBMCs were freshly prepared using Ficoll gradient by Lampire Biological Laboratories, Inc. PBMCs in RPMI w/10% FCS at delivery were spun down at 1500 rpm for twenty minutes and the cell pellet was washed twice with 1×PBS to wash off the residual Ficoll. The cells were then resuspended at a density of 1×10^6/ml in RPMI supplemented with 10% FCS, 1× Antibiotics-Antimycotics. The suspension was divided into two aliquots. One aliquot was stimulated with 10 μg/ml of LPS and the other was not stimulated. Both aliquots were then incubated at 37° C., 5% CO2 for twenty-four to seventy-two hours. The conditioned media with or without LPS stimulation are collected, aliquoted, and stored in −80° C. for a maximum of three months. Each conditioned medium was assessed for levels of pro-inflammatory cytokines to ensure their secretion from PBMC. A representative cytokine, IL-6, was assayed by ELISA using a Human IL-6 Quantikine kit and it was shown that the LPS-stimulated medium had at least 10 ng/ml of IL-6, while IL-6 was undetectable in the unstimulated medium.
In the second method, the explants were cultured at 37° C., 5% CO2 either in stimulated or non-stimulated conditioned medium as described above or in defined medium containing DMEM supplemented with 1% FCS, 1× insulin-transferrin-sodium selenite media supplement and Antibiotics-Antimycotics in the presence or absence of a cocktail of cytokines containing 10 ng/ml of IL-1β, 100 ng/ml of TNFα and 5 ng/ml of IFN-γ. The compounds were solubilized in H2O, Ethanol or DMSO (10^−2 M) according to suppliers' instructions and further diluted with either conditioned medium stimulated with or without LPS to the required concentrations. DMSO concentrations in the culture media never exceeded 1%. This concentration of DMSO has no effect on cartilage proteoglycan metabolism in response to cytokines. The injured and noninjured cartilage explants were treated with compound-containing medium for three to five days. The specimens were first treated with compounds at desired concentrations at 37° C. for one hour and then incubated for three to five days in the absence or presence of the cocktail of cytokines. At the end of the incubation, media and cartilage samples were harvested and frozen for further analysis.
Glycosaminoglycan (GAG) levels in the culture media or cartilage were determined by measuring the amount of polyanionic material reacting with 1,9-dimethylmethylene blue (DME) as detected by absorbance at 525 nm, using shark chondroitin sulfate as a standard. The DME blue dye-binding solution was prepared by dissolving 16 mg of DME blue in a solution containing 0.304% glycine, 0.23% NaCl, 9.5 mM HCl, pH=3.0 with A525 equaling 0.31. […]

Experiment [2] deals with IL-1β-stimulated GAG release, bovine chondrocyte pellets / ARC tissues. The experiment in a line: chondrocyte pellet culture model: GAG degradation. The class given is cell-based. Conditions: for inhibition of GAG degradation: ARC tissues stimulated with IL-1β; for GAG Release: Pellet Assay. The essentials: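 Bovine chondrocyte pellets (calf articular cartilage, 2–3 weeks culture) or ARC tissue punches pretreated with compounds for 1 h at 37° C, then 3–5 days with or without 10 ng/ml IL-1β; DMSO ≤1%. Medium GAG measured by dimethylmethylene blue absorbance at 525 nm against chondroitin sulfate; reported as μg/ml or % total GAG released.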

Take `CC(=O)Oc1cccc2c1C(=O)c1c(OC(C)=O)cc(C(=O)O)cc1C2=O` [Diacerein, reference compound]: the “GAG, inhibition of degradation/release” value in experiment [1] is given as “completely inhibited”. Further, the “lowest concentration inhibiting proteoglycan degradation” value in experiment [2] (10 ng/ml IL-1β, five days) is no more than 0.054 µM.
Turning to `OCCC#Cc1nc(-c2ccc(F)cc2)c(-c2ccncc2)n1CCCc1ccccc1` [JNJ 3026582 (RWJ 67657), 4-[4-(4-fluorophenyl)-1-(3-phenylpropyl)-5-(4-pyridinyl)-1H-imidazol-2-yl]-3-butyn-1-ol], in experiment [1], the “GAG, inhibition of degradation/release” value is listed as “little efficacy”. Also, the “inhibition of GAG degradation” value in experiment [2] is “significant effect”.
Regarding `C[C@H](Nc1nccc(-c2c(-c3ccc(F)cc3)nc3nc(N)ccn23)n1)c1ccccc1` [JNJ 7583979 (RWJ 351958)], the “GAG, inhibition of degradation/release” value is recorded as “little efficacy” in experiment [1] and “little” in experiment [1] (listed as JNK 7583979 (RWJ 351958)). The “inhibition of GAG degradation” value in experiment [2] is given as “significant effect”.
On to `CC(=O)N1CCN(c2c(-c3ccncc3)c(-c3ccc(F)cc3)c(C#N)n2C)CC1` [JNJ 17089540 (RWJ 669307)], for which, in experiment [2], the “inhibition of GAG degradation” value is given as “little effect” and the “GAG Release” value is “No effect”.
As for `CC(C(=O)O)c1ccc(C(=O)c2cccs2)cc1` (stereo not shown) [Suprofen, reference compound], the “GAG Release” value in experiment [2] was “No effect”.
